32 compounds from US20090191193A1, “Aryl Vinyl Sulfides, Sulfones, Sulfoxides and Sulfonamides, Derivatives Thereof and Therapeutic Uses Thereof” (TEMPLE UNIVERSITY-OF THE COMMONWEALTH SYSTEM OF HIGHER …, priority 2006, published 2009) can be followed below.

In one data set the test system is DU145 (prostate cancer). Nature of the data set: Effect on tumor cell lines, viable cell count by trypan blue exclusion (Latham et al.): DU145. Type of data set: cell-based. The conditions noted are these: DU145 prostate cancer cells, viable cell count 96 hours after treatment. The procedure: (§1) The effect of the compounds of the invention on tumor cells was determined by the assay described by Latham et al., Oncogene 12:827-837 (1996). Tumor cells DU145 (prostate cancer), K562 (chronic myelogenous leukaemia), BT20 (breast carcinoma), H157 (non small cell lung carcinoma), or DLD1 (colon carcinoma) were plated in 6-well dishes at a cell density of 1.0×10^5 cells per 35-mm^2 well. […] The total number of viable cells was determined 96 hours later by trypsinizing the wells and counting the number of viable cells, as determined by trypan blue exclusion, using a hemacytometer. Normal HFL cells were treated with the same compounds under the same conditions of concentration and time.

For data set [1], the system named is K562 (chronic myelogenous leukaemia). As to the kind of experiment: Effect on tumor cell lines, viable cell count by trypan blue exclusion (Latham et al.): K562. Type of data set: cell-based. The conditions noted are these: K562 chronic myelogenous leukaemia cells, viable cell count 96 hours after treatment. The procedure: as §1

`N#C/C(=C\c1ccc(O)c([N+](=O)[O-])c1)S(=O)(=O)Nc1ccc(Br)cc1` [Example 223] yielded a melting point above 250 °C. The IC50 with DU145 (prostate cancer) (Homo sapiens, DU-145, 96 h) is above 100 µM. Besides, the IC50 in data set [1] (Homo sapiens, K562, 96 h) was above 100 µM.
As for `N#C/C(=C\c1c[nH]c2ccccc12)S(=O)(=O)Cc1ccc(Cl)cc1` [Example 68], the melting point was 200 to 205 °C. Besides, in the data set with DU145 (prostate cancer) (Homo sapiens, DU-145, 96 h), the IC50 was 25 to 50 µM. In data set [1] (Homo sapiens, K562, 96 h), this compound gave an IC50 of 10 to 25 µM.
For `N#C/C(=C\c1ccc(O)c([N+](=O)[O-])c1)S(=O)(=O)Cc1ccc(Cl)cc1` [Example 59] the same measures were 195 to 205 °C, 50 to 100 µM and 50 to 100 µM.
Taken in the same sequence, the figures for `CN(C)c1ccc(/C=C(\C#N)S(=O)(=O)Nc2ccc(Br)cc2)cc1` [Example 216] were 190 to 192 °C, 50 to 100 µM and 25 to 50 µM.
`N#C/C(=C\c1c[nH]c2ccc(Cl)cc12)S(=O)(=O)Cc1ccc(F)cc1` [Example 77] showed a melting point of 250 to 265 °C. In the data set on DU145 (prostate cancer) (Homo sapiens, DU-145, 96 h), this compound came in with an IC50 of 50 to 100 µM. The compound further gave an IC50 in data set [1] (Homo sapiens, K562, 96 h) of 50 to 100 µM.
Take `N#C/C(=C\c1c[nH]c2ccccc12)S(=O)(=O)Nc1ccc(F)cc1` [Example 231]: the melting point lay in the range of 202 to 204 °C. In addition, the IC50 in the data set with DU145 (prostate cancer) (Homo sapiens, DU-145, 96 h) lay in the range of 50 to 100 µM. This compound displayed an IC50 in data set [1] (Homo sapiens, K562, 96 h) of 25 to 50 µM.
For `COc1ccc(NS(=O)(=O)/C(C#N)=C/c2ccc(F)cc2)cc1` [Example 200] the same measures were 107 to 109 °C, above 100 µM and 50 to 100 µM.
Taken in the same sequence, the figures for `CCOc1ccc(/C=C(\C#N)S(=O)(=O)Nc2ccc(Br)cc2)cc1OC` [Example 219] were 188 to 190 °C, 50 to 100 µM and 50 to 100 µM.
For `N#C/C(=C\c1ccccc1Oc1ccccc1)S(=O)(=O)Nc1ccccc1Oc1ccccc1` [Example 210] the same measures were 138 to 140 °C, 25 to 50 µM and 1 to 10 µM.
For the compound `CN(C)c1ccc(/C=C(\C#N)S(=O)(=O)Cc2ccc(F)cc2)cc1` [Example 64], the melting point fell in the range of 135 to 145 °C. Moreover, in the data set on DU145 (prostate cancer) (Homo sapiens, DU-145, 96 h), the IC50 fell in the range of 50 to 100 µM. In addition, the IC50 in data set [1] (Homo sapiens, K562, 96 h) was in the range of 50 to 100 µM.
For the compound `COc1cc(OC)c(/C=C(\C#N)S(=O)(=O)Nc2ccc(F)cc2)c(OC)c1` [Example 232], the melting point fell in the range of 169 to 171 °C. In the data set on DU145 (prostate cancer) (Homo sapiens, DU-145, 96 h), this compound gave an IC50 of 50 to 100 µM. In data set [1] (Homo sapiens, K562, 96 h), this compound had an IC50 of 25 to 50 µM.
Taken in the same sequence, the figures for `Cc1ccc(NS(=O)(=O)/C(C#N)=C/c2cc(C)ccc2C)c(C)c1` [Example 259] were 139 to 141 °C, above 100 µM and 50 to 100 µM.
Taken in the same sequence, the figures for `COc1ccc(/C=C(\C#N)S(=O)(=O)Cc2ccc(Cl)cc2)c(F)c1` [Example 49] were 145 to 155 °C, above 100 µM and 50 to 100 µM.
For `N#C/C(=C\c1c(F)c(F)c(F)c(F)c1F)S(=O)(=O)Nc1ccc(Br)cc1` [Example 221] the same measures were 174 to 176 °C, 1 to 10 µM and below 1 µM.
In the case of `COc1ccc(OC)c(/C=C(\C#N)S(=O)(=O)Cc2ccccc2)c1` [Example 135], the melting point was in the range of 140 to 143 °C. In addition, in the data set on DU145 (prostate cancer) (Homo sapiens, DU-145, 96 h), the IC50 is above 100 µM. Moreover, the IC50 in data set [1] (Homo sapiens, K562, 96 h) is above 100 µM.
`COc1ccc(NS(=O)(=O)/C(C#N)=C/c2c(F)c(F)c(F)c(F)c2F)cc1OS(=O)(=O)c1ccc(C)cc1` [Example 194, (E)-2-[(4-methoxy-3-(4-methylphenylsulfonyloxy)phenyl)sulfamoyl]-3-(2,3,4,5,6-pentafluorophenyl)acrylonitrile] registered a melting point of 112 to 114 °C. The IC50 in the data set on DU145 (prostate cancer) (Homo sapiens, DU-145, 96 h) lay in the range of 1 to 10 µM. Further, the IC50 in data set [1] (Homo sapiens, K562, 96 h) is 1 to 10 µM.
`COc1cccc(OC)c1/C=C(\C#N)S(=O)(=O)Cc1ccc(Br)cc1` [Example 18] came in with a melting point of 156 to 158 °C. This compound also came in with an IC50 in the data set with DU145 (prostate cancer) (Homo sapiens, DU-145, 96 h) of 25 µM. Also, inhibition in data set [1] (Homo sapiens, K562, 96 h) was half-maximal at 10 µM (IC50).
For `Cc1ccc(NS(=O)(=O)/C(C#N)=C/c2ccccc2Cl)c(C)c1` [Example 256] the same measures were 116 to 119 °C, 25 to 50 µM and 1 to 10 µM.
For `COc1ccc(/C=C(\C#N)S(=O)(=O)Cc2ccccc2)cc1OC` [Example 133] the same measures were 170 to 174 °C, above 100 µM and 50 to 100 µM.
On to `COc1ccc(OC)c(/C=C(\C#N)S(=O)(=O)Cc2ccc(Cl)cc2Cl)c1` [Example 106], for which the melting point lay within 132 to 137 °C. In the data set with DU145 (prostate cancer) (Homo sapiens, DU-145, 96 h), the half-maximal inhibitory concentration (IC50) fell in the range of 50 to 100 µM. This compound also yielded an IC50 in data set [1] (Homo sapiens, K562, 96 h) of 50 to 100 µM.
Take `COc1ccc(/C=C(\C#N)S(=O)(=O)Nc2ccc(Br)cc2)c(OC)c1OC` [Example 218]: the melting point is 146 to 148 °C. In the data set on DU145 (prostate cancer) (Homo sapiens, DU-145, 96 h), this compound had an IC50 above 100 µM. Further, in data set [1] (Homo sapiens, K562, 96 h), the IC50 fell in the range of 50 to 100 µM.
In the case of `COc1ccc(/C=C(\C#N)S(=O)(=O)Cc2ccccc2)c(F)c1` [Example 129], the melting point was in the range of 161 to 166 °C. The same compound yielded an IC50 in the data set on DU145 (prostate cancer) (Homo sapiens, DU-145, 96 h) above 100 µM. In addition, the IC50 in data set [1] (Homo sapiens, K562, 96 h) was 50 to 100 µM.
As to `Cc1ccc(NS(=O)(=O)/C(C#N)=C/c2cc(Cl)cc(Cl)c2Cl)c(C)c1` [Example 263], the melting point was in the range of 171 to 173 °C. This compound also displayed an IC50 in the data set on DU145 (prostate cancer) (Homo sapiens, DU-145, 96 h) below 1 µM. Moreover, the IC50 in data set [1] (Homo sapiens, K562, 96 h) was below 1 µM.
The compound `N#C/C(=C\c1ccccc1)S(=O)(=O)Cc1ccc(Cl)cc1` [Example 69] displayed a melting point of 142 to 157 °C. The IC50 in the data set with DU145 (prostate cancer) (Homo sapiens, DU-145, 96 h) is above 100 µM. The same compound yielded an IC50 in data set [1] (Homo sapiens, K562, 96 h) above 100 µM.
In turn, `COc1ccc(/C=C(\C#N)S(=O)(=O)Cc2ccc(OC)cc2)cc1` [Example 141] yielded a melting point of 163 to 167 °C. The IC50 in the data set with DU145 (prostate cancer) (Homo sapiens, DU-145, 96 h) is above 100 µM. Moreover, the IC50 in data set [1] (Homo sapiens, K562, 96 h) was above 100 µM.
With `COc1cc(OC)c(OC)cc1/C=C(\C#N)S(=O)(=O)Nc1ccc(F)cc1` [Example 237], the melting point fell in the range of 184 to 186 °C. The same compound showed an IC50 in the data set with DU145 (prostate cancer) (Homo sapiens, DU-145, 96 h) above 100 µM. In data set [1] (Homo sapiens, K562, 96 h), this compound had a half-inhibitory concentration (IC50) above 100 µM.
As for `COc1ccc(/C=C(\C#N)S(=O)(=O)Cc2ccc(Cl)cc2)c(OC)c1OC` [Example 46], the melting point lay in the range of 120 to 128 °C. Besides, the IC50 with DU145 (prostate cancer) (Homo sapiens, DU-145, 96 h) was above 100 µM. In data set [1] (Homo sapiens, K562, 96 h), this compound had a half-inhibitory concentration (IC50) above 100 µM.
For `Cc1ccc(NS(=O)(=O)/C(C#N)=C/c2ccccc2OCc2ccccc2)c(C)c1` [Example 252], the melting point lay within 177 to 179 °C. Further, the half-inhibitory concentration (IC50) in the data set on DU145 (prostate cancer) (Homo sapiens, DU-145, 96 h) lay in the range of 25 to 50 µM. In data set [1] (Homo sapiens, K562, 96 h), this compound yielded an IC50 of 10 to 25 µM.
Taken in the same sequence, the figures for `COc1ccc(/C=C(\C#N)S(=O)(=O)Cc2ccc(Cl)cc2Cl)cc1` [Example 99] were 114 to 127 °C, above 100 µM and 50 to 100 µM.
For `Cc1ccc(NS(=O)(=O)/C(C#N)=C/c2ccc(Br)cc2)c(C)c1` [Example 262] the same measures were 164 to 166 °C, 25 to 50 µM and 10 to 25 µM.
For `N#C/C(=C\c1c[nH]c2ccc(Cl)cc12)S(=O)(=O)Cc1ccc(Cl)cc1Cl` [Example 75], the melting point lay in the range of 282 to 292 °C. In addition, the IC50 in the data set on DU145 (prostate cancer) is 50 to 100 µM. Moreover, the IC50 in data set [1] lay in the range of 50 to 100 µM.
The compound `Cc1ccsc1/C=C(\C#N)S(=O)(=O)Nc1ccc(Br)cc1` [Example 224] came in with a melting point of 176 to 179 °C. For the same compound, the IC50 in the data set on DU145 (prostate cancer) (Homo sapiens, DU-145, 96 h) lay in the range of 50 to 100 µM. In addition, the IC50 in data set [1] (Homo sapiens, K562, 96 h) was in the range of 50 to 100 µM.

In general, IC50 refers to the midpoint of a concentration-inhibition curve. As a reminder, the melting point is the temperature, or range, at which the solid turns liquid.
